# Values of other authors in PubChem BioAssay AID1259409 (Chemical Carcinogenesis Research Information System (CCRIS), 2018).
# System: rodent chemically induced tumor inhibition, incidence and multiplicity
# Test: CCRIS tumor inhibitor studies
compound,measurement,setting,value
CC(C#Cc1ccc(Oc2ccc(F)cc2)o1)N(O)C(N)=O (centres undefined),"tumour outcome (control, treated, inhibition, significance)","Carcinogen: 4-(METHYLNITROSAMINO)-1-(3-PYRIDYL)-1-BUTANONE, 64091-91-4, Dose [Inhibitor]: 0, 74 MG/KG DIET FOR DURATION OF STUDY BEGINNING 2 WK PRIOR TO CARCINOGEN TREATMENT (STUDY DURATION: 25 WK), Route [Inhibitor]: ORAL, Species: MOUSE, Strain/Sex: STRAIN-A/FEMALE, Target Tissue: Type of Lesion: LUNG: TUMOR, Dose [Carcinogen]: 9.1 MG/MOUSE IN DRINKING WATER FOR 7 WK, Promoter: NONE USED","29/29 (100%), 20/25 (80%), 20%, p<0.001"
Cc1cnc(NC(=O)C2=C(O)c3ccccc3S(=O)(=O)N2C)s1,"tumour outcome (control, treated, inhibition, significance)","Carcinogen: N-NITROSOBIS(2-OXOPROPYL)AMINE [60599-38-4], Dose [Inhibitor]: 5 MG/KG EACH WEEKDAY OVER A PERIOD OF 16 WKS STARTING AT 4 WKS (STUDY DURATION: 20 WKS), Route [Inhibitor]: ORAL (GAVAGE?), Species: HAMSTER, Strain/Sex: SYRIAN GOLDEN/FEMALE, Target Tissue: Type of Lesion: GALL BLADDER: CARCINOMA IN SITU, Dose [Carcinogen]: 10 MG/KG BW AT WKS 4, 6, 8, 10, 12, 14, 16, 18 (8 DOSES) (STUDY DURATION: 20 WKS)","4/11 (36%), 0/11 (0%), 100%, not significant"
CCCCCCCCCCCCCCCCCCCCCC(O)CC(O)CCCCC (centres undefined),"tumour outcome (control, treated, inhibition, significance)","Carcinogen: 7,12-DIMETHYLBENZ[A]ANTHRACENE, 57-97-6, Dose [Inhibitor]: 0, 2 UMOL APPLIED 30 MIN PRIOR TO EACH PROMOTER DOSE 2/WK FOR 20 WK BEGINNING 7 D POST CARCINOGEN DOSE (STUDY DURATION:, Route [Inhibitor]: DERMAL, Species: MOUSE, Strain/Sex: ICR/FEMALE, Target Tissue: Type of Lesion: SKIN: PAPILLOMA, Dose [Carcinogen]: 50 UG IN 100 µL ACETONE ONCE, Promoter: 12-O-TETRADECANOLYPHORBOL-13-ACETATE, 16561-29-8","93%, 20%, 78%, not significant"
CC1=C(/C=C/C(C)=C/C=C/C(C)=C/C(=O)Nc2ccc(O[C@@H]3O[C@H](C(=O)O)[C@@H](O)C(O)C3O)cc2)C(C)(C)CCC1 (some centres undefined),"tumour outcome (control, treated, inhibition, significance)","Carcinogen: 7,12-DIMETHYLBENZ[A]ANTHRACENE, 57-97-6, Dose [Inhibitor]: 0, 1 MMOL/KG IN DIET FOR THE DURATION OF STUDY BEGINNING 1 WK PRIOR TO CARCINOGEN DOSE (STUDY DURATION: 105 WK), Route [Inhibitor]: ORAL, Species: RAT, Strain/Sex: SPRAGUE-DAWLEY/FEMALE, Target Tissue: Type of Lesion: MAMMARY GLAND: TUMOR, Dose [Carcinogen]: 15 MG IN 1 ML SESAME OIL ONCE, Promoter: NONE USED","88%, 36%, 59%, not significant"
